The values that follow come from patent publication US7282508B2, “Substituted 4-phenyl-4-(1H-imidazol-2-yl)-piperidine derivatives and their use as selective non-peptide delta opioid agonists” (Janssen Pharmaceutica N.V., priority 2001, dated 2007).

`CCOC(=O)N1CCC(c2ccccc2)(c2nccn2Cc2ccc(C(=O)O)cc2)CC1` [Compound 8]: the melting point (commonly the temperature, or range, at which the solid turns liquid) was determined as 251.6 °C.
Regarding `O=C(c1ccccc1)N1CCC(c2ccccc2)(c2nccn2Cc2ccccc2)CC1` [Compound 2], the melting point amounted to 122.7 °C.
Compound `CCN/C(=N/C#N)N1CCC(c2ccccc2)(c2nccn2Cc2ccccc2)CC1` [Compound 4] came in with a melting point of 84.2 °C.
The compound `CCOC(=O)N1CCC(c2ccccc2)(c2nccn2Cc2ccc(C(=O)OC)cc2)CC1` [Compound 3] displayed a melting point of 149.1 °C.
